Legend:
[1] = background statement; cited from earlier work
M1CHO cells [2] = assay: Effect of increasing concentrations of carbachol on M1CHO cells (intracellular pH); assay type: cell-based; conditions: carbachol 6.7 μM or 0 μM, after ammonium chloride
Description: (§1) M1CHO cells, 50,000, in 40 μL were seeded and incubated at 37° C., 5% CO2 overnight in a 96-well microplate. To each well is added 10 μL of the Loading Buffer (as described in Examples 19 and 20) including a fluorescein diacetate compound of the invention and a nonfluorescent quenching dye. After 45 min at room temperature, 5 μL of 220 mM ammonium chloride is added. […] A drop is fluorescence signal is observed at time=10 to 20 seconds due to the increased acidification of the cells. The low pH stimulates the Na^+/H^+ exchange pump.
For Compounds 19 and 20, emission is monitored at 550 nm and excitation is monitored at 505 and 470 nm.

[3] = pH buffer series, final concentration 1.0 μM, Gemini XS fluorescence plate reader
Description: The excitation and emission spectra of the aqueous solutions are obtained with a Gemini XS fluorescence plate reader (Molecular Devices Corporation; Sunnyvale, Calif.).

M1CHO cells [4] = assay: Pirenzapine inhibition of carbachol-mediated stimulation of M1CHO cells (intracellular pH); assay type: cell-based; conditions: pirenzapine 0.1, 0.3, 1.0 μM, carbachol 1 μM
Description: as §1, with “M1CHO Cells,” for “M1CHO cells,”, “μL are” for “μL were”, “room temperature” for “room temperature,”, “ammonium chloride, in combination with pirenzapine to a final concentration of 0.0 μM, 1.0 μM, 0.3 μM, and 0.1 μM.” for “ammonium chloride is added.”, “drop in” for “drop is”, “20 seconds, corresponding to a drop in signal” for “20 seconds”

MCF7/ADR cells = assay: Drug Resistance Assay: insulin on MCF7/ADR cells (intracellular pH); assay type: cell-based; conditions: 0.003-150 nM insulin, after NH4Cl acid load, FIG. 6
Description: MCF7/ADR cells are MCF7 mammary gland adenocarcinoma selected for adriamycin resistance. These cells are propagated and maintained in DMEM medium containing 5% FCS, 1× Pen/Strep, 2 mM L-glutamine, and non-essential amino acids. The assay is performed according to the following procedure.
The cells are then incubated in a 37° C. CO2 incubator overnight.
A 25 mM stock solution of a Masking Compound is prepared by dissolving an appropriate amount of the desired Masking Compound in 10 mL water.
The cell plate is removed from the incubator, and all wells are washed once with 1× Assay Buffer, leaving 40 μL of buffer in each well. The cell plate is then incubated at 37° C. for at least 4 hours.
A stock solution of insulin is prepared by dissolving 1 mg of insulin in 1 mL of 1 M HCl to a concentration of 174 μM. A 5 μL aliquot of the insulin stock solution is diluted with 4,574 μL H+H/2 mM probenecid/0.1% BSA solution (190 nM stock, 150 nM final concentration). Three-fold dilutions are performed 11 times to obtain final concentrations of 0.003, 0.008, 0.02, 0.07, 0.2, 0.6, 1.9, 5.6, 17, 50, and 150 nM, respectively.

CHO/CCR5/Galphaqi5 cells = assay: Effect of increasing concentrations of RANTES on CHO/CCR5/Galphaqi5 cells (intracellular pH); assay type: cell-based; conditions: RANTES 2-500 nM, after ammonium chloride
Description: CHO/CCR5/Galphaqi5 cells, 80,000, in 40 μL are seeded and incubated at 37° C., 5% CO2 overnight in a 96-well microplate. To each well is added 10 μL of Loading Buffer (as described in Examples 19 and 20) including a fluorescein diacetate compound of the invention and a nonfluorescent quenching dye. After 45 min at room temperature 5 μL of 220 mM ammonium chloride is added. Following an additional 15 min incubation at room temperature, 200 μL of buffer containing RANTES to a final concentration of 500, 167, 56, 19, 6, 2, or 0 nM is added using the fluidics module on a fluorescence microplate reader (10 seconds after the start of the experiment) and fluorescence readings are recorded. A drop in fluorescence signal is observed at time=10 to 20 seconds, corresponding to an increased acidification of the cells. The low pH stimulates the Na+/H+ exchange pump.

Molecule: 2′,7′-bis-(2-carboxyethyl)-5-(and-6)-carboxyfluorescein [BCECF]
- pKa [1]: 7.0

Molecule: C[N+](C)(C)CCOC(N)=O [carbachol]
- activity of the Na+/H+ exchange pump / alkalinization of the cells (M1CHO cells [2]): increases the activity of the pump, resulting in a greater alkalinization of the cells in a dose:dependent manner

Molecule: 2′,7′-diethyl-5-(or 6-)carboxyfluorescein [Compound 4]
- calculated pKa (acid dissociation constant) [3]: 6.96

Molecule: CN1CCN(CC(=O)N2c3ccccc3C(=O)Nc3cccnc32)CC1 [Pirenzapine]
- effect on carbachol-mediated stimulation (M1CHO cells [4]): inhibits the carbachol-mediated stimulation

Molecule: insulin
- activity of the Na+/H+ exchange pump / alkalinization of the cells (MCF7/ADR cells): increases the activity of the pump, resulting in a greater alkalinization of the cells in a dose-dependent manner

B1: RANTES (protein, UniProt P13501 24-91, looked up)
C-C motif chemokine 5: SPYSSDTTPCCFAYIARPLPRAHIKEYFYTSGKCSNPAVVFVTRKNRQVCANPEKKWVREYINSLEMS
notes: RANTES, added to CHO/CCR5/Galphaqi5 cells at increasing concentrations
- activity of the Na+/H+ exchange pump / alkalinization of the cells (CHO/CCR5/Galphaqi5 cells): increases the activity of the pump, resulting in a greater alkalinization of the cells in a dose:dependent manner

Source: patent publication US7507395B2, “Methods of using fluorescent pH indicators for intracellular assays” (MDS Analytical Technologies (US) Inc., priority 2001, dated 2009)
